For test [1], the target named is T1, ELIC (Erwinia chrysanthemi ligand-gated ion channel) (Dickeya chrysanthemi, UniProt P0C7B7).
T1 sequence (P0C7B7 1-321): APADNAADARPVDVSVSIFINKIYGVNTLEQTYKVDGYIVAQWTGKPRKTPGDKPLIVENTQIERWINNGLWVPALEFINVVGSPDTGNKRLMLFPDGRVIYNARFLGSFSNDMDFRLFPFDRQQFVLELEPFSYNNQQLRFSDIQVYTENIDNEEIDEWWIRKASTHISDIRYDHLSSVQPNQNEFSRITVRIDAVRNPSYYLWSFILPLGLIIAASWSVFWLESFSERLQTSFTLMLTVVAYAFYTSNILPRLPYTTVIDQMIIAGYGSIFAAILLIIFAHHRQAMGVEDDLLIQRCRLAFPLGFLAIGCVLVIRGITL
As to the kind of experiment: two-electrode voltage clamp, Xenopus oocytes. Type of test: cell-based. The following applies: agonist; pH 7.4, 18 °C, -60 mV; concentration used as EC20.

In test [2] the target is ELIC (Erwinia chrysanthemi ligand-gated ion channel) (Dickeya chrysanthemi, UniProt P0C7B7, L239S/W223A). Nature of the test: cell-based. The following applies: read-out: remaining EC20 current (%) at 200 μM.
Test [3] has as its target T1, ELIC (Erwinia chrysanthemi ligand-gated ion channel). Nature of the test: two-electrode voltage clamp, Xenopus oocytes. Type of test: cell-based.
Test [4] deals with ELIC (Erwinia chrysanthemi ligand-gated ion channel) (Dickeya chrysanthemi, UniProt P0C7B7, F273A/L239S). Nature of the test: cell-based. Particulars: read-out: remaining EC20 current (%) at 200 μM.

Broadly, the EC20 is the point of the concentration-response curve where the effect stands at 20%. Lower therefore signals greater potency. In test [1], `NCCCC(=O)O` [GABA] had an EC20 of 3000 µM.

In general, IC50 refers to the concentration that gives 50% inhibition. On to `BrC(Br)Br` [bromoform], for which the remaining activity at 200 µM in test [2] worked out at 81 ± 6%; in test [4], 78 ± 4%. This molecule displayed a half-maximal inhibitory concentration (IC50) in test [3] of 125 ± 10 µM. `ClC(Cl)Cl` [chloroform] returned a half-maximal inhibitory concentration (IC50) in test [3] of 162 ± 26 µM.
